From patent publication US7452717B2, “Compositions and methods for sensitizing and inhibiting growth of human tumor cells” (St. Jude Children's Research Hospital, priority 1998, dated 2008)
Several values for one entry are separate records, joined by “and”; a condition that tells them apart may be missing. Equal entries are not always repeated.

Tests used:
[1] = molecular target: T1, human intestinal CE (hiCE) (Homo sapiens, UniProt O00748); assay: Esterase assay (o-NPA), COS-7 cells expressing hiCE; format: biochemical; conditions: plasmid pCIhiCE, media
T1 construct: expressed in transfected cells; host or cells: COS-7 (sonicates of transiently transfected cells)
T1 sequence (O00748 27-559): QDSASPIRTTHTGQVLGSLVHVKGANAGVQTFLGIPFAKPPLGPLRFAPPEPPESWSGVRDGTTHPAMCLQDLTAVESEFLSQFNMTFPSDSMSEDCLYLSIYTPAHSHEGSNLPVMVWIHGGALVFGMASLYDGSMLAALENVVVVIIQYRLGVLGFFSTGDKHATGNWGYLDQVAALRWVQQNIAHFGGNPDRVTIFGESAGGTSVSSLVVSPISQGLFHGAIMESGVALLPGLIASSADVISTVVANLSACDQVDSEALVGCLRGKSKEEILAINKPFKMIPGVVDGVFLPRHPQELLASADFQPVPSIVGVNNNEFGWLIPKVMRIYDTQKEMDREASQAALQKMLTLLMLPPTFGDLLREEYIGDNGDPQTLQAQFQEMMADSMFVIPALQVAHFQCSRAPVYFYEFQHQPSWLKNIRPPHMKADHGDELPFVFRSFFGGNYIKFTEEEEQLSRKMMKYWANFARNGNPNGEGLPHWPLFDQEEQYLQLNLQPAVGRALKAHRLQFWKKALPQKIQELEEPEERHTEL
Description: (§1) Esterase activity was determined in whole tissue sonicates using a spectrophotometric assay with o-nitrophenol acetate as a substrate (Potter et al. 1998 Cancer Res. 52:2646-2651; Beaufay et al. 1974 J. Cell Biol. 61:188-200). Protein concentrations were calculated using BioRad protein assay reagent (Hercules, Calif.) with bovine serum albumin as a standard. Enzyme activities were calculated as μmoles of o-nitrophenol produced per minute per mg of total protein.

[2] = system: CE activity in human biopsy whole tissue sonicates; assay: Esterase assay (o-NPA conversion) with human biopsy extracts; format: biochemical
Description: Using human intestinal mucosal biopsy tissue, the conversion of o-NPA to nitrophenol by whole tissue sonicates was monitored. CE activity was identified in both small intestine and colon samples, with activity levels in small intestine being much less than the levels seen with human liver.
Biopsies of human intestine were obtained from the Cooperative Human Tissue Network (Birmingham, Ala.). The samples were ground under liquid nitrogen and the resulting powder sonicated in 50 mM Hepes, pH 7.4, on ice.
as §1

[3] = system: COS-7 cells (pCIneo, no enzyme); assay: Esterase assay (o-NPA), COS-7 cells transfected with pCIneo; format: biochemical, monkey; conditions: plasmid pCIneo
Description: as §1

rabbit liver CE = molecular target: T2, rabbit liver CE (Oryctolagus cuniculus, UniProt P12337); assay: Esterase assay (o-NPA), COS-7 cells expressing rabbit CE; format: biochemical; set-up: To amplify a full length rabbit CE cDNA, oligonucleotide primers RabNTERM; expressed in transfected cells; host or cells: COS-7 (sonicates of transiently transfected cells); conditions: plasmid pCIRAB, enzyme rabbit
T2 sequence (P12337 19-565): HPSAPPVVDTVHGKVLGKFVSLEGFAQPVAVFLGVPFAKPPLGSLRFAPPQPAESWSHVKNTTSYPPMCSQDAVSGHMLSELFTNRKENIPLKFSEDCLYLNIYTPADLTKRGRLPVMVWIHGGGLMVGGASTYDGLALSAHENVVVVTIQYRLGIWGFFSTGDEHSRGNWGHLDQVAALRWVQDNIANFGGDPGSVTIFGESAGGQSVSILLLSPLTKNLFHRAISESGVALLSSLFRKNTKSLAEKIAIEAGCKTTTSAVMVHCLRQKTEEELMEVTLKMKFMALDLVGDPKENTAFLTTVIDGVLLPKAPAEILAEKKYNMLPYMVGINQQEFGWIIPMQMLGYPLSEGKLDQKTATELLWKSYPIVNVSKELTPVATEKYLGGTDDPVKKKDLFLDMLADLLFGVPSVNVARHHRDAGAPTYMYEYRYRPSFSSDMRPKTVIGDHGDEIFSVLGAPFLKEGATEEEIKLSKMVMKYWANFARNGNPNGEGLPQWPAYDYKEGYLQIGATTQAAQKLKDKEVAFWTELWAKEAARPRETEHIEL
Description: as §1

human liver CE (hCE1) = molecular target: T3, human liver CE (hCE1) (Homo sapiens, UniProt P23141); assay: Esterase assay (o-NPA), COS-7 cells expressing hCE1; format: biochemical; conditions: plasmid pCIHUMCAR, enzyme hCE1
T3 construct: expressed in transfected cells; host or cells: COS-7 (sonicates of transiently transfected cells)
T3 sequence (P23141 18-567): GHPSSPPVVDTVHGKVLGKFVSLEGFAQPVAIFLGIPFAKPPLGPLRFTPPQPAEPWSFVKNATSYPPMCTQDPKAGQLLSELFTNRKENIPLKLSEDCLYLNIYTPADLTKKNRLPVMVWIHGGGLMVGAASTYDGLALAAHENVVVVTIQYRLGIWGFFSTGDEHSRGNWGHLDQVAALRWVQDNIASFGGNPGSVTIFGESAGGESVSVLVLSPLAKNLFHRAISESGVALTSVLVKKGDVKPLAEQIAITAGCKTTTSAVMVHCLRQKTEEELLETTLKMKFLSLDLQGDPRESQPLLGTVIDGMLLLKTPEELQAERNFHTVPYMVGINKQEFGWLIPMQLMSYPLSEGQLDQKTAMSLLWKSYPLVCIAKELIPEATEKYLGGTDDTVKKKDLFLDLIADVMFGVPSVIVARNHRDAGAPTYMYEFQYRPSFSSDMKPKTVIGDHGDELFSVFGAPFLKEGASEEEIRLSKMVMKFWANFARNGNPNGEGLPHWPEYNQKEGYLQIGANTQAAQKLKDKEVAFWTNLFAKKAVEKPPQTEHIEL
Description: as §1

o-NPA Conversion [1]: 30.9 ± 2.8 µmol/min/mg | o-NPA Conversion (rabbit liver CE): 2755.5 ± 271.2 µmol/min/mg | o-NPA Conversion (human liver CE (hCE1)): 4780.3 ± 279.8 µmol/min/mg
Structure (SMILES): CC(=O)Oc1ccccc1[N+](=O)[O-] [o-NPA, o-nitrophenyl acetate]
o-NPA Conversion ([2]; human colon biopsy extract): 46.5 ± 1.2 µmol/min/mg and 86.3 ± 5.2 µmol/min/mg and 75.9 ± 2.6 µmol/min/mg | o-NPA Conversion ([2]; human small intestine biopsy extract): 113.0 ± 9.2 µmol/min/mg and 67.6 ± 4.1 µmol/min/mg and 61.0 ± 2.0 µmol/min/mg | o-NPA Conversion ([3]; enzyme none): 6.7 ± 0.15 µmol/min/mg | o-NPA Conversion ([3]; media): 13.3 ± 2.7 µmol/min/mg
